Results published in US5686486A, “4-hydroxy-benzopyran-2-ones and 4-hydroxy-cycloalkyl[b]pyran-2-ones useful to treat retroviral infections” (priority 1995, dated 1997).
“And” between values parts separate entries of the source, which are not always exact repeats. Identical values can stand only once.

How the values were obtained:
HIV-1 protease [1] = molecular target: T1, HIV-1 protease (Human immunodeficiency virus type 1 group M subtype B, UniProt P04585); assay: biochemical; settings: read-out: HIV-1 FITC KI
How it was run: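 Ki from two-fold serial inhibitor dilutions (24–48 concentrations) with 40 nM HIV-1 protease stock and 200 μM substrate stock, 90 min at room temperature; stopped with avidin beads. Reference inhibitor run in parallel; Ki by nonlinear least-squares fit.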

HIV-1 protease [2] = molecular target: T1, HIV-1 protease; assay: biochemical; settings: for inhibition at 0.123 µM: read-out: HIV-1 Protease % Inhib, dose 0.123 uM; for inhibition at 0.37 µM: read-out: HIV-1 Protease % Inhib, dose 0.370 uM; for inhibition at 1.1 µM: read-out: HIV-1 Protease % Inhib, dose 1.100 uM; for inhibition at 3.3 µM: read-out: HIV-1 Protease % Inhib, dose 3.300 uM; for inhibition at 10 µM: read-out: HIV-1 Protease % Inhib, dose 10.000 uM; for inhibition at 30 µM: read-out: HIV-1 Protease % Inhib, dose 30.000 uM
How it was run: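 Biotinylated, FITC-labeled peptide substrate (20 μl of 0.2 μM) incubated with HIV-1 protease (10 μl of 0.1 μM) and compound in 0.1 M sodium acetate pH 5.5, 1.0 M NaCl, 0.05% NP-40, 1 h, room temperature, dark. Streptavidin beads then capture uncleaved substrate; filtered labeled product read by fluorescence, giving percent inhibition.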

SMILES | Ki (HIV-1 protease [1]) | inhibition at 0.123 µM (HIV-1 protease [2]) | inhibition at 0.37 µM (HIV-1 protease [2]) | inhibition at 1.1 µM (HIV-1 protease [2]) | inhibition at 3.3 µM (HIV-1 protease [2]) | inhibition at 10 µM (HIV-1 protease [2]) | inhibition at 30 µM (HIV-1 protease [2])
CC(=O)Nc1ccc(S(=O)(=O)Nc2cccc(C(c3c(O)c4c(oc3=O)CCCCCC4)C3CC3)c2)cc1 (centres unmarked) [Example 307, N-[4-[[[3-[Cyclopropyl(5,6,7,8,9,10-hexahydro-4-hydroxy-2-oxo-2H-cycloocta[b]pyran-3-yl)methyl]phenyl]amino]sulfonyl]phenyl]-acetamide] | 7.6 nM | 19.5% | 66.5% | 85.2% | 97.8% | 105% | 90.3%
O=c1oc2c(c(O)c1C(c1cccc(NS(=O)(=O)c3ccc(N=Nc4ccccc4)cc3)c1)C1CC1)CCCCCC2 (centres unmarked) [Example 308, N-[3-[Cyclopropyl(5,6,7,8,9,10-hexahydro-4-hydroxy-2-oxo-2H-cycloocta[b]pyran-3-yl)methyl]phenyl]4-(phenylazo)-benzenesulfonamide] | 3.1 nM | 46.5% | 70.4% | 82.3% | 91.3% | 96.9% | 86.8%
CN(C)c1ccc(N=Nc2ccc(S(=O)(=O)Nc3cccc(C(c4c(O)c5c(oc4=O)CCCCCC5)C4CC4)c3)cc2)cc1 (centres unmarked) [Example 309, N-[3-[Cyclopropyl(5,6,7,8,9,10-hexahydro-4-hydroxy-2-oxo-2H-cycloocta[b]pyran-3-yl)methyl]phenyl]-4-[[4-(dimethylamino)phenyl]azo]-benzenesulfonamide] | 5.8 nM | 46.6% | 67.5% | 82.5% | 76.5% | 43.7% | 19.2%
O=c1oc2c(c(O)c1C(c1cccc(NS(=O)(=O)c3ccc(-c4ccccn4)s3)c1)C1CC1)CCCCCC2 (centres unmarked) [Example 310, N-[3-[Cyclopropyl(5,6,7,8,9,10-hexahydro4-hydroxy-2-oxo-2H-cycloocta[b]pyran-3-yl)methyl]phenyl]-5-(2-pyridinyl)-2-thiophenesulfonamide] | 2.37 nM | 46.2% | 86.2% | 94.9% | 99% | 103% | 102%
Cc1c(Cl)cccc1S(=O)(=O)Nc1cccc(C(c2c(O)c3c(oc2=O)CCCCCC3)C2CC2)c1 (centres unmarked) [Example 311, 3-Chloro-N-[3-[cyclopropyl(5,6,7,8,9,10-hexahydro-4-hydroxy-2-oxo-2H-cycloocta[b]pyran-3-yl)methyl]phenyl]-2-methyl-benzenesulfonamide] | 6.33 nM | 20.8% | 71.2% | 86.4% | 92% | 99.5% | 99.5%
O=c1oc2c(c(O)c1C(c1cccc(NS(=O)(=O)c3ccc(OC(F)(F)F)cc3)c1)C1CC1)CCCCCC2 (centres unmarked) [Example 312, N-[3-[Cyclopropyl(5,6,7,8,9,10-hexahydro-4-hydroxy-2-oxo-2-cycloocta[b]pyran-3-yl)methyl]phenyl]-4-(trifluoromethoxy)-benzenesulfonamide] | 4 nM | 48.2% | 83.6% | 89.7% | 106% | 114% | 110%
O=c1oc2c(c(O)c1C(c1cccc(NS(=O)(=O)c3cccc(NS(=O)(=O)CCCCl)c3)c1)C1CC1)CCCCCC2 (centres unmarked) [Example 313] | 1.17 nM | 104% | 96.5% | 101% | 100% | 106% | 102%
O=c1oc2c(c(O)c1C(c1cccc(NS(=O)(=O)c3cccnc3)c1)C1CC1)CCCCCC2 (centres unmarked) [Example 314, N-[3-[Cyclopropyl(5,6,7,8,9,10-hexahydro-4-hydroxy-2-oxo-2H-cylcloocta[b]pyran-3-yl)methyl]phenyl]-3-pyridinesulfonamide] | 2.31 nM and 2.01 nM | 79.5% | 97.7% | 108% | 109% | 102% | 97.1%
Cc1cncc(S(=O)(=O)Nc2cccc(C(c3c(O)c4c(oc3=O)CCCCCC4)C3CC3)c2)c1 (centres unmarked) [Example 315, N-[3-[Cyclopropyl(5,6,7,8,9,10-hexahydro4-hydroxy-2-oxo-2H-cycloocta[b]pyran-3-yl)methyl]phenyl]-5-methyl-3-pyridinesulfonamide] | 2.58 nM | 80.7% | 94.7% | 91.9% | 95.2% | 86.7% | 81.4%
C=CS(=O)(=O)Nc1cccc(C(c2c(O)c3c(oc2=O)CCCCCC3)C2CC2)c1 (centres unmarked) [Example 316, N-[3-[Cycloproopyl(5,6,7,8,9,10-hexahydro4-hydroxy-2-oxo-2H-cycloocta[b]pyran-3-yl)methyl]phenyl]-ethenesulfonamide] | 18 nM |  | 31.2% | 77.8% | 98.1% | 103% | 111%
CCS(=O)(=O)Nc1cccc(C(c2c(O)c3c(oc2=O)CCCCCC3)C2CC2)c1 (centres unmarked) [Example 318, N-[3-[Cyclopropyl(5,6,7,8,9,10-hexahydro-4-hydroxy-2-oxo-2H-cycloocta[b]pyran-3-yl)methyl]phenyl]-ethanesulfonamide] | 9.9 nM | 28.3% | 45.1% | 84.2% | 99.7% | 97.5% | 106%
O=c1oc2c(c(O)c1C(c1cccc(NS(=O)(=O)c3ccccc3)c1)C1CC1)CCCCCC2 (centres unmarked) [Example 319, N-[3-[Cyclopropyl(5,6,7,8,9,10-hexahydro-4-hydroxy-2-oxo-2H-cycloocta[b]pyran-3-yl)methyl]phenyl]-benzenesulfonamide] | 4.3 nM and 3.3 nM and 2.1 nM | 67% | 84.2% | 93.1% | 94.3% | 102% | 101%
O=c1oc2c(c(O)c1C(c1cccc(NS(=O)(=O)C=Cc3ccccc3)c1)C1CC1)CCCCCC2 (centres unmarked) [Example 320, N-[3-[Cyclopropyl(5,6,7,8,9,10-hexahydro-4-hydroxy-2-oxo-2H-cycloocta[b]pyran-3-yl)methyl]phenyl]-2-phenyl-ethenesulfonamide] | 3.8 nM and 2.1 nM | 66.4% | 78.5% | 98.2% | 102% | 99.3% | 99%
O=c1oc2c(c(O)c1C(c1cccc(NS(=O)(=O)Cc3ccccc3)c1)C1CC1)CCCCCC2 (centres unmarked) [Example 321, N-[3-[Cyclopropyl(5,6,7,8,9,10-hexahydro-4-hydroxy-2-oxo-2H-cycloocta[b]pyran-3-yl)methyl]phenyl]-benzenemethanesulfonamide] | 13.2 nM | 22.2% | 62.1% | 100% | 113% | 119% | 118%
CCCS(=O)(=O)Nc1cccc(C(c2c(O)c3c(oc2=O)CCCCCC3)C2CC2)c1 (centres unmarked) [Example 324, N-[3-[Cyclopropyl(5,6,7,8,9,10-hexahydro-4-hydroxy-2-oxo-2H-cycloocta[b]pyran-3-yl)methyl]phenyl]-1-propanesulfonamide] | 4 nM | 44.3% | 87.5% | 103% | 108% | 116% | 117%
O=C1c2ccccc2C(=O)N1CCS(=O)(=O)Nc1cccc(C(c2c(O)c3c(oc2=O)CCCCCC3)C2CC2)c1 (centres unmarked) [Example 327, N-[3-[Cyclopropyl(5,6,7,8,9,10-hexahydro-4-hydroxy-2-oxo-2H-cycloocta[b]pyran-3-yl)methyl]phenyl]-1,3-dihydro-1,3-dioxo-2H-isoindole-2-ethanesulfonamide] | 13.5 nM | 34.2% | 68.2% | 94.8% | 105% | 106% | 113%
O=c1oc2c(c(O)c1C(c1cccc(NS(=O)(=O)CCCCl)c1)C1CC1)CCCCCC2 (centres unmarked) [Example 331, 3-Chloro-N-[3-[cyclopropyl(5,6,7,8,9,10-hexahydro-4-hydroxy-2-oxo-2H-cycloocta[b]pyran-3-yl)methyl]phenyl]-1-propanesulfonamide] | 4.8 nM | 66.4% | 86.9% | 99.2% | 119% | 121% | 105%
O=c1oc2c(c(O)c1C(c1cccc(NS(=O)(=O)c3cc(C(F)(F)F)cc(C(F)(F)F)c3)c1)C1CC1)CCCCCC2 (centres unmarked) [Example 332, N-[3-[Cyclopropyl(5,6,7,8,9,10-hexahydro-4-hydroxy-2-oxo-2H-cycloocta[b]pyran-3-yl)methyl]phenyl]-3,5-bis(trifluoromethyl)-benzenesulfonamide] | 47 nM | 23.1% | 39.3% | 71.5% | 94% | 109% | 115%
